Measurements published in patent publication US20160130293A1, “NOVEL COMPOUND DERIVED FROM PLANT OF GENUS QUAMOCLIT AND COMPOSITION CONTAINING SAME AS ACTIVE INGREDIENT FOR PREVENTING OR TREATING DIABETES” (KOREA RESEARCH INSTITUTE BIOSCIENCE, priority 2013, published 2016).

Legend:
[1] = tested on: diabetic mice (Male C57BL/Ks DB/DB mouse); assay: Blood glucose in diabetic mice treated orally for 4 weeks; type: in vivo; settings: 1 mg/kg oral daily for 4 weeks, vs diabetic mouse control group, FIG. 4
Experimental: Normal mice and diabetic mice were treated with the Quamoclit-derived novel compound to determine the changes in diabetes indicators such as blood glucose and glycated hemoglobin.
(§1) 6-week-old mice (Male C57BL/6J mouse, 20 g, Central Lab. Animal Inc., Seoul) and 6-week-old diabetic mice (Male C57BL/Ks DB/DB mouse, 20 g, Central Lab. Animal Inc., Seoul) were purchased and acclimated under constant temperature (25° C.) and humidity (50%) for 1 week and used for the experiment.
(§2) Mice were classified into a normal mouse control group, a diabetic mouse control group, a diabetic mouse group treated with drug (glimepiride), a diabetic mouse group treated with the Quamoclit angulata-derived novel compound (KRIBB-BH-P, 1 mg/kg), and a diabetic mouse group treated with the Quamoclit angulata-derived novel compound (KRIBB-BH-SFP, 1 mg/kg), each group consisting of five mice. The treated mice were orally administered with the drug and compounds daily for 4 weeks. The change in blood glucose in mice of each group was measured every week, and after 4 weeks, blood was collected from each mouse to measure the concentration of glycated hemoglobin.

[2] = tested on: diabetic mice (Male C57BL/Ks DB/DB mouse); assay: Glycated hemoglobin (HbA1c) in diabetic mice after 4 weeks, ELISA kit; type: in vivo; settings: 1 mg/kg oral daily for 4 weeks
Experimental: as §1, §2
In order to reduce the complications developed in diabetic patients under treatment, it is important to maintain the level of blood glucose at an appropriate level. Since the levels of blood glucose measured at a certain time may be changed by various factors, the test of glycated hemoglobin (HbAlc) is most widely used for the purpose of determining the long-term change in blood glucose control. […]
In order to determine the effect of the Quamoclit angulata-derived novel compound on the glycated hemoglobin, blood was collected from each mouse in the normal mouse control group, the diabetic mouse control group, the diabetic mouse group treated with the Quamoclit angulata-derived novel compound (KRIBB-BH-P, 1 mg/kg), and the diabetic mouse group treated with the Quamoclit angulata-derived novel compound (KRIBB-BH-SFP, 1 mg/kg), in which the treated mice were orally administered with the compounds daily for 4 weeks, and the levels of glycated hemoglobin were measured using an ELISA kit (Cusabio biotech, Japan).

[3] = tested on: mice fed with high-fat diet (Male C57BL/6J); assay: Fasting blood glucose test in high-fat diet mice after 2 weeks of treatment; type: in vivo, mouse; settings: 1 mg/kg oral daily for 2 weeks, fasted 16 hours, FIG. 6
Experimental: 5-week-old mouse (Male C57BL/6J, 19 g, Koatech, Pyeongtaek, Korea) was purchased and acclimated under constant temperature (25° C.) and humidity (50%) for 1 week and used for the experiment. Mice were classified into a group fed with normal diet and a group fed with high-fat diet and the mice were fed for 2 weeks, each group consisting of five mice.
At 2 weeks after feeding with high-fat diet, the experimental mice were classified into a normal mouse control group, a diabetic mouse control group, a diabetic mouse group treated with drug (glimepiride), a diabetic mouse group treated with the Quamoclit angulata-derived novel compound (KRIBB-BH-P, 1 mg/kg), and a diabetic mouse group treated with the Quamoclit angulata-derived novel compound (KRIBB-BH-SFP, 1 mg/kg), and the treated mice were orally administered with the drug and compounds daily for 2 weeks. Then, the mice were fasted for 16 hours, and the level of blood glucose was measured.

Min6 cell line = assay: Stimulation of insulin secretion in mouse pancreatic beta-cell line (Insulin ELISA); type: cell-based; settings: 25 mM glucose, 0.5 ng/ml, 2 hours, vs 25 mM glucose negative control, FIG. 3
Experimental: The effect of the novel compound KRIBB-BH-SFP isolated from Quamoclit angulata on the stimulation of insulin secretion was determined in a mouse pancreatic beta-cell line, Min6 cell line.
Min6 cells (ATCC, USA) were cultured in HDMEM supplemented with 15% fetal bovine serum. To induce the expression of insulin in the Min6 cell line, the cells were plated on a 96 well plate at a density of 1×10^4 cell/plate and cultured in […] DMEM (high glucose) supplemented with 15% FBS for 72 hours. Then, the cells were washed with PBS buffer solution and cultured in HBSS buffer solution for 2 hours, and then, the buffer solution was replaced with HBSS buffer solution supplemented with 25 mM glucose. Then, the novel compound […] was added to a final concentration of 0.5 ng/ml, and the cells were cultured for 2 hours to determine the stimulation of insulin expression. Meanwhile, for use as a control, cells were treated with 5.5 mM glucose such that the insulin was not expressed. For use as a negative control, cells were treated with 25 mM glucose, and the level of insulin expression in these cells was compared to determine the effect of the novel compound (KRIBB-BH-SFP) derived from Quamoclit angulata on the stimulation of insulin expression. […]

SMILES	level of blood glucose [1]	HbA1c [2]	level of blood glucose (fasting) [3]	level of insulin expression (insulin secreted from Min6 cells) (Min6 cell line)	level of glycated hemoglobin ([2]; in words)
CCCCCC(CCCC(O)CC(=O)O)OC1OC(COC2OC(C)C(OC3CC(O)C(O)C(C)O3)CC2O)C(O)C(O)C1OC1CC(O)C(OC2CC(O)C(OC3CC(O)C(OC)C(C)O3)C(C)O2)C(C)O1 (stereo not drawn) [KRIBB-BH-P]	significantly reduced	6.63 ± 0.70%	significantly reduced	–	–
CCCCCC(O)CCCC(O)CC(=O)O (stereo not drawn) [KRIBB-BH-SC]	–	–	–	increased	–
CCCCCC(CCCC(O)CC(=O)O)OC1OC(C)C(O)C(O)C1O (stereo not drawn) [KRIBB-BH-SFP]	significantly reduced	6.51 ± 0.46%	significantly reduced	increased	significantly reduced
